Measured values from the NIST ThermoML archive (doi:10.1016/j.jct.2015.02.024).
Numbers after ± are expanded uncertainties.

Test: activity coefficient (dimensionless); of the first substance listed, at infinite dilution; xn = mol fraction of the nth substance listed
Details: 101 kPa, Liquid, Chromatography, x1 = 0

Row | Compound | activity coefficient (318.15 K) | activity coefficient (328.15 K) | activity coefficient (338.15 K) | activity coefficient (348.15 K) | activity coefficient (358.15 K) | activity coefficient (368.15 K) | activity coefficient (298.15 K) | activity coefficient (308.15 K)
1 | Cc1ccccc1C [1,2-dimethylbenzene] + C[N+]1(CCCO)CCOCC1.O=S(=O)([N-]S(=O)(=O)C(F)(F)F)C(F)(F)F | 5.73 ± 0.39 | 5.76 ± 0.39 | 5.78 ± 0.39 | 5.81 ± 0.4 | 5.83 ± 0.4 | 5.86 ± 0.4 |  | 
2 | Cc1cccc(C)c1 [1,3-dimethylbenzene] + C[N+]1(CCCO)CCOCC1.O=S(=O)([N-]S(=O)(=O)C(F)(F)F)C(F)(F)F | 6.44 ± 0.44 | 6.55 ± 0.45 | 6.64 ± 0.45 | 6.73 ± 0.46 | 6.85 ± 0.47 | 6.92 ± 0.47 |  | 
3 | Cc1ccc(C)cc1 [1,4-dimethylbenzene] + C[N+]1(CCCO)CCOCC1.O=S(=O)([N-]S(=O)(=O)C(F)(F)F)C(F)(F)F | 6.65 ± 0.45 | 6.7 ± 0.5 | 6.74 ± 0.46 | 6.78 ± 0.46 | 6.79 ± 0.46 | 6.84 ± 0.47 |  | 
4 | C1COCCO1 [1,4-dioxane] + C[N+]1(CCCO)CCOCC1.O=S(=O)([N-]S(=O)(=O)C(F)(F)F)C(F)(F)F | 0.6 ± 0.042 | 0.653 ± 0.045 | 0.709 ± 0.047 | 0.758 ± 0.05 | 0.811 ± 0.052 | 0.859 ± 0.055 |  | 
5 | C=CCCCCCCCC [1-decene] + C[N+]1(CCCO)CCOCC1.O=S(=O)([N-]S(=O)(=O)C(F)(F)F)C(F)(F)F | 307 ± 21 | 269 ± 18 | 243 ± 17 | 218 ± 15 | 194 ± 13 | 176 ± 12 |  | 
6 | C=CCCCCC [1-heptene] + C[N+]1(CCCO)CCOCC1.O=S(=O)([N-]S(=O)(=O)C(F)(F)F)C(F)(F)F | 86.6 ± 5.9 | 75.8 ± 5.2 | 69.3 ± 4.7 | 62.2 ± 4.3 | 55.7 ± 3.8 | 51.1 ± 3.5 |  | 
7 | C#CCCCCC [1-heptyne] + C[N+]1(CCCO)CCOCC1.O=S(=O)([N-]S(=O)(=O)C(F)(F)F)C(F)(F)F | 20 ± 1.4 | 19.2 ± 1.3 | 18.4 ± 1.3 | 17.6 ± 1.2 | 16.9 ± 1.2 | 16.3 ± 1.1 |  | 
8 | C#CCCCC [1-hexyne] + C[N+]1(CCCO)CCOCC1.O=S(=O)([N-]S(=O)(=O)C(F)(F)F)C(F)(F)F | 12.5 ± 0.9 | 11.9 ± 0.8 | 11.6 ± 0.8 | 11.2 ± 0.8 | 10.7 ± 0.7 | 10.4 ± 0.7 |  | 
9 | CCC[N+](=O)[O-] [1-nitropropane] + C[N+]1(CCCO)CCOCC1.O=S(=O)([N-]S(=O)(=O)C(F)(F)F)C(F)(F)F | 1.24 ± 0.08 | 1.26 ± 0.08 | 1.28 ± 0.08 | 1.3 ± 0.08 | 1.32 ± 0.09 | 1.34 ± 0.09 |  | 
10 | C#CCCCCCC [1-octyne] + C[N+]1(CCCO)CCOCC1.O=S(=O)([N-]S(=O)(=O)C(F)(F)F)C(F)(F)F | 33 ± 2.3 | 31.3 ± 2.1 | 29.6 ± 2 | 28 ± 1.9 | 26.7 ± 1.8 | 25.5 ± 1.7 |  | 
11 | C=CCCC [1-pentene] + C[N+]1(CCCO)CCOCC1.O=S(=O)([N-]S(=O)(=O)C(F)(F)F)C(F)(F)F | 38.3 ± 2.6 | 30.6 ± 2.1 |  |  |  |  | 64.5 ± 4.4 | 49.4 ± 3.4
12 | C#CCCC [1-pentyne] + C[N+]1(CCCO)CCOCC1.O=S(=O)([N-]S(=O)(=O)C(F)(F)F)C(F)(F)F | 7.77 ± 0.53 | 7.48 ± 0.51 | 7.24 ± 0.49 | 6.99 ± 0.48 | 6.79 ± 0.46 | 6.63 ± 0.45 |  | 
13 | CC(C)CC(C)(C)C [2,2,4-trimethylpentane] + C[N+]1(CCCO)CCOCC1.O=S(=O)([N-]S(=O)(=O)C(F)(F)F)C(F)(F)F | 272 ± 19 | 226 ± 16 | 191 ± 13 | 165 ± 11 | 140 ± 10 | 125 ± 9 |  | 
14 | CCOC(C)(C)C [2-ethoxy-2-methylpropane] + C[N+]1(CCCO)CCOCC1.O=S(=O)([N-]S(=O)(=O)C(F)(F)F)C(F)(F)F | 16.1 ± 1.1 | 15.8 ± 1.1 | 15.6 ± 1.1 | 15.2 ± 1 | 15 ± 1 | 14.8 ± 1 |  | 
15 | CCC(C)(C)OC [2-methoxy-2-methylbutane] + C[N+]1(CCCO)CCOCC1.O=S(=O)([N-]S(=O)(=O)C(F)(F)F)C(F)(F)F | 8.7 ± 0.59 | 8.75 ± 0.6 | 8.8 ± 0.6 | 8.86 ± 0.6 | 8.89 ± 0.61 | 8.93 ± 0.61 |  | 
16 | COC(C)(C)C [2-methoxy-2-methylpropane] + C[N+]1(CCCO)CCOCC1.O=S(=O)([N-]S(=O)(=O)C(F)(F)F)C(F)(F)F | 4.94 ± 0.34 | 5.07 ± 0.35 | 5.22 ± 0.36 | 5.35 ± 0.36 | 5.45 ± 0.37 | 5.58 ± 0.38 |  | 
17 | CC(C)CO [2-methyl-1-propanol] + C[N+]1(CCCO)CCOCC1.O=S(=O)([N-]S(=O)(=O)C(F)(F)F)C(F)(F)F | 3.25 ± 0.22 | 3.08 ± 0.21 | 2.94 ± 0.2 | 2.78 ± 0.19 | 2.65 ± 0.18 | 2.54 ± 0.17 |  | 
18 | CC(C)(C)O [2-methylpropan-2-ol] + C[N+]1(CCCO)CCOCC1.O=S(=O)([N-]S(=O)(=O)C(F)(F)F)C(F)(F)F | 2.09 ± 0.14 | 2.06 ± 0.14 | 2.03 ± 0.14 | 2 ± 0.14 | 1.97 ± 0.13 | 1.95 ± 0.13 |  | 
19 | CCC(C)CC [3-methylpentane] + C[N+]1(CCCO)CCOCC1.O=S(=O)([N-]S(=O)(=O)C(F)(F)F)C(F)(F)F | 152 ± 10 |  |  |  |  |  | 273 ± 19 | 201 ± 14
20 | C=C(C)c1ccccc1 [(1-methylethenyl)benzene] + C[N+]1(CCCO)CCOCC1.O=S(=O)([N-]S(=O)(=O)C(F)(F)F)C(F)(F)F | 5.97 ± 0.41 | 6.12 ± 0.42 | 6.28 ± 0.43 | 6.41 ± 0.44 | 6.55 ± 0.45 | 6.65 ± 0.45 |  | 
21 | CC(C)=O [acetone] + C[N+]1(CCCO)CCOCC1.O=S(=O)([N-]S(=O)(=O)C(F)(F)F)C(F)(F)F | 0.486 ± 0.037 | 0.517 ± 0.039 | 0.543 ± 0.04 | 0.572 ± 0.041 | 0.596 ± 0.042 | 0.63 ± 0.04 |  | 
22 | CC#N [acetonitrile] + C[N+]1(CCCO)CCOCC1.O=S(=O)([N-]S(=O)(=O)C(F)(F)F)C(F)(F)F | 0.479 ± 0.037 | 0.495 ± 0.038 | 0.513 ± 0.038 | 0.528 ± 0.039 | 0.545 ± 0.04 | 0.561 ± 0.04 |  | 
23 | c1ccccc1 [benzene] + C[N+]1(CCCO)CCOCC1.O=S(=O)([N-]S(=O)(=O)C(F)(F)F)C(F)(F)F | 2.53 ± 0.17 | 2.56 ± 0.17 | 2.58 ± 0.18 | 2.6 ± 0.18 | 2.63 ± 0.18 | 2.65 ± 0.18 |  | 
24 | CCCCO [butan-1-ol] + C[N+]1(CCCO)CCOCC1.O=S(=O)([N-]S(=O)(=O)C(F)(F)F)C(F)(F)F | 3.23 ± 0.22 | 3.07 ± 0.21 | 2.96 ± 0.2 | 2.84 ± 0.19 | 2.73 ± 0.19 | 2.64 ± 0.18 |  | 
